Patent US9242987B2, “Heterocyclyl pyrazolopyrimidine analogues as JAK inhibitors” (Cellzome Limited, priority 2009, dated 2016)
Structures can show the parent of a compound that is named as a salt.

Key:
JAK2 = target: T1, JAK2 (Homo sapiens, UniProt O60674); test: Kinobeads assay, JAK2; assay type: binding; details: mixed Molt4/Ramos cell lysate, dot blot detection
T1 construct: endogenous in cells; host or cells: Mixed Molt4/Ramos lysate (1:2)
How it was run: (§1)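 Competition pulldown: compound dilution series incubated 3 h in cold room with immobilized aminopyrido-pyrimidine beads and mixed Molt4/Ramos lysate (1:2, 10 mg/mL protein) in DP buffer pH 7.4 with NP40. Bead-bound JAK2/JAK3 eluted, quantified by antibody dot blot with infrared detection; IC50 from dose-response curves.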

JAK3 = target: T2, JAK3 (Homo sapiens, UniProt P52333); test: Kinobeads assay, JAK3; assay type: binding; details: mixed Molt4/Ramos cell lysate, dot blot detection
T2 construct: endogenous in cells; host or cells: Mixed Molt4/Ramos lysate (1:2)
T2 sequence (P52333 1-1124): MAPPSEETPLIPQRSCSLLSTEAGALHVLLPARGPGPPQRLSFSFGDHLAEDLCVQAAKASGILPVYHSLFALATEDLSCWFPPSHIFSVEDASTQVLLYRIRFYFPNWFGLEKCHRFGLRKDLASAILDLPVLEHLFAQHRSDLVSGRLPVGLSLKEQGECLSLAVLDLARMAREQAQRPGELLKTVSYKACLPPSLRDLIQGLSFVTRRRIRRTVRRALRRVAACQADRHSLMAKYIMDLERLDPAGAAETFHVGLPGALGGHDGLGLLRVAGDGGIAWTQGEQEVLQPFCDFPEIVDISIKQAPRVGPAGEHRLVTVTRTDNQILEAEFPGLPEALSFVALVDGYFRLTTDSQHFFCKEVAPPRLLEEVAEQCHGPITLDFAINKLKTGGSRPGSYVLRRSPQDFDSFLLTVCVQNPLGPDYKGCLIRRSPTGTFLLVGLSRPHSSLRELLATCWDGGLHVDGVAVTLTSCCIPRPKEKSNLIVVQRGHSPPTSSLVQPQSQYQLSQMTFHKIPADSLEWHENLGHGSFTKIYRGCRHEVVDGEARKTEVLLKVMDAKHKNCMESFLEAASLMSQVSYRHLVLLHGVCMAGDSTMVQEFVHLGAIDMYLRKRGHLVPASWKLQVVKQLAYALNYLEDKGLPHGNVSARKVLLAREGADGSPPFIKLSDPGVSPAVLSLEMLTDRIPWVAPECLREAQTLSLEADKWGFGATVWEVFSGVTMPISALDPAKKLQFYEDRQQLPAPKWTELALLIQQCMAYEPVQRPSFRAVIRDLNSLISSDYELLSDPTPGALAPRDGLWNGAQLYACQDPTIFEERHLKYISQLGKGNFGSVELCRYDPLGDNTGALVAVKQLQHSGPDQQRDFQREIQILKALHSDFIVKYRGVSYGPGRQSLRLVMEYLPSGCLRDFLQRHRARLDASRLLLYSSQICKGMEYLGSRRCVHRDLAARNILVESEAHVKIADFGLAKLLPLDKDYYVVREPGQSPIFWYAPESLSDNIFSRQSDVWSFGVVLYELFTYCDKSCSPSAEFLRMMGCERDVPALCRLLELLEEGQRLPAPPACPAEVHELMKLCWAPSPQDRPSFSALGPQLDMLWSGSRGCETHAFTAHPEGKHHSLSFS
How it was run: as §1

T1 sequence (O60674 whole entry): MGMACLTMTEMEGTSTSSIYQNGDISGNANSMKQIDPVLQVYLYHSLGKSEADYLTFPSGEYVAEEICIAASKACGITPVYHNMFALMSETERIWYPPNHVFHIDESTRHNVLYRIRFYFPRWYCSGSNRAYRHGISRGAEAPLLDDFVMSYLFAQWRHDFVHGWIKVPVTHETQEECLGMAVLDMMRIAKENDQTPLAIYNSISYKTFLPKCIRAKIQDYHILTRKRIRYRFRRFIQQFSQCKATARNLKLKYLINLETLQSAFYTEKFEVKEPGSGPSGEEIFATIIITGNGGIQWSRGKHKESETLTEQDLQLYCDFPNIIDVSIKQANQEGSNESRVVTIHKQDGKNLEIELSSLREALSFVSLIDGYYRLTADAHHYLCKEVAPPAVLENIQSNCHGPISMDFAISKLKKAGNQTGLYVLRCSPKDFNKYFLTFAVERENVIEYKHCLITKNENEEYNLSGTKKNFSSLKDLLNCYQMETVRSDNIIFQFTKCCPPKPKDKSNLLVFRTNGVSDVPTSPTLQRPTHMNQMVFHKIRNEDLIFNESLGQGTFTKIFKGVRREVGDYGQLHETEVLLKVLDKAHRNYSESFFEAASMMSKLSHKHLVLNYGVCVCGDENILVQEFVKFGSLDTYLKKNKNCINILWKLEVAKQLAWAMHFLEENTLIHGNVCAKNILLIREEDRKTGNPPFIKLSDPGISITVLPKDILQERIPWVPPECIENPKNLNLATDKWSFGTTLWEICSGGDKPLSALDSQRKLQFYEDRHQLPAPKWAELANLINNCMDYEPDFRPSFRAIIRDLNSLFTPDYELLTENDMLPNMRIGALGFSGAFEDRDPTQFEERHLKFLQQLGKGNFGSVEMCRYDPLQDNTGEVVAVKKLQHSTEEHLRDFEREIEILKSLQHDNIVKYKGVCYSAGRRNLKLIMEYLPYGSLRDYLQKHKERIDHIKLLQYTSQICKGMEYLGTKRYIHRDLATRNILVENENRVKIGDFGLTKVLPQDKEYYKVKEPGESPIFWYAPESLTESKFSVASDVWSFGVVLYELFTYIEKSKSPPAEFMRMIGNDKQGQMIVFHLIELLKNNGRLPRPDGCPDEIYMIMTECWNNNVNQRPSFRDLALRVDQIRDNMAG

SMILES | IC50 (JAK2) | IC50 (JAK3)
Cc1cc(Nc2ncc3cnn(Cc4ccccc4C#N)c3n2)nn1C [Example 9, 2-((6-(1,5-Dimethyl-1H-pyrazol-3-ylamino)-1H-pyrazolo[3,4-d]pyrimidin-1-yl)methyl)benzonitrile] | ≥ 10 µM | 100 to 1000 nM
N#Cc1ccccc1Cn1ncc2cnc(Nc3ccon3)nc21 [Example 8] | ≥ 10 µM | 1000 to 10000 nM
COCCNC(=O)c1cccc(Cn2ncc3cnc(Nc4cnn(C)c4)nc32)c1 [Example 200] | ≥ 10 µM | < 100 nM
Cn1cc(Nc2ncc3cnn(-c4cccc(C(=O)NCCO)c4)c3n2)cn1 [Example 147, N-(2-Hydroxyethyl)-3-(6-((1-methyl-1H-pyrazol-4-yl)amino)-1H-pyrazolo[3,4-d]pyrimidin-1-yl)benzamide] | ≥ 10 µM | 100 to 1000 nM
Cn1cc(Nc2ncc3cnn(Cc4cccc(OCC5CC5)c4)c3n2)cn1 [Example 172, 1-(3-(Cyclopropylmethoxy)benzyl)-N-(1-methyl-1H-pyrazol-4-yl)-1H-pyrazolo[3,4-d]pyrimidin-6-amine] | ≥ 10 µM | 100 to 1000 nM
Fc1ccccc1Cn1ncc2cnc(Nc3c[nH]nc3Cl)nc21 [Example 97, N-(3-Chloro-1H-pyrazol-4-yl)-1-(2-fluorobenzyl)-1H-pyrazolo[3,4-d]pyrimidin-6-amine] | ≥ 10 µM | 100 to 1000 nM
Cn1cc(Nc2ncc3cnn(Cc4ccccc4OCC4CC4)c3n2)cn1 [Example 173, 1-(2-(Cyclopropylmethoxy)benzyl)-N-(1-methyl-1H-pyrazol-4-yl)-1H-pyrazolo[3,4-d]pyrimidin-6-amine] | 1 to 10 µM | 100 to 1000 nM
OCCn1ccc(Nc2ncc3cnn(Cc4ccccc4F)c3n2)n1 [Example 238, 2-(3-((1-(2-Fluorobenzyl)-1H-pyrazolo[3,4-d]pyrimidin-6-yl)amino)-1H-pyrazol-1-yl)ethanol] | ≥ 10 µM | 100 to 1000 nM
FC(F)Cn1cc(Nc2ncc3cnn(Cc4ccccc4)c3n2)cn1 [Example 118, 1-Benzyl-N-(1-(2,2-difluoroethyl)-1H-pyrazol-4-yl)-1H-pyrazolo[3,4-d]pyrimidin-6-amine] | 1 to 10 µM | < 100 nM
Cn1cc(Nc2ncc3cnn(Cc4ccccc4OCc4ccccc4)c3n2)cn1 [Example 114, 1-(2-(Benzyloxy)benzyl)-N-(1-methyl-1H-pyrazol-4-yl)-1H-pyrazolo[3,4-d]pyrimidin-6-amine] | ≥ 10 µM | 100 to 1000 nM
OCCn1cnc(Nc2ncc3cnn(Cc4ccccc4F)c3n2)c1 [Example 240, 2-(4-((1-(2-Fluorobenzyl)-1H-pyrazolo[3,4-d]pyrimidin-6-yl)amino)-1H-imidazol-1-yl)ethanol] | 1 to 10 µM | < 100 nM
Cc1ccc(O)cc1Cn1ncc2cnc(Nc3cnn(C)c3)nc21 [Example 189] | ≥ 10 µM | 100 to 1000 nM
COc1cc(-n2ncc3cnc(Nc4cnn(C)c4)nc32)ccc1F [Example 58, 1-(4-Fluoro-3-methoxyphenyl)-N-(1-methyl-1H-pyrazol-4-yl)-1H-pyrazolo[3,4-d]pyrimidin-6-amine] | ≥ 10 µM | 100 to 1000 nM
Cn1cc(Nc2ncc3cnn(Cc4cccc5ccccc45)c3n2)cn1 [Example 220, N-(1-Methyl-1H-pyrazol-4-yl)-1-(naphthalen-1-ylmethyl)-1H-pyrazolo[3,4-d]pyrimidin-6-amine] | 1 to 10 µM | 100 to 1000 nM
COc1nn(CC(F)F)cc1Nc1ncc2cnn(Cc3ccccc3C(N)=O)c2n1 [Example 36, 2-((6-(1-(2,2-Difluoroethyl)-3-methoxy-1H-pyrazol-4-ylamino)-1H-pyrazolo[3,4-d]pyrimidin-1-yl)methyl)benzamide] | ≥ 10 µM | 100 to 1000 nM
CC(C)c1ccccc1Cn1ncc2cnc(Nc3cnn(C)c3)nc21 [Example 101, 1-(2-Isopropylbenzyl)-N-(1-methyl-1H-pyrazol-4-yl)-1H-pyrazolo[3,4-d]pyrimidin-6-amine] | 1 to 10 µM | 100 to 1000 nM
Cn1cc(Nc2ncc3cnn(Cc4cccc(N[C@@H]5CCOC5)n4)c3n2)cn1 [Example 187, (R)—N-(1-Methyl-1H-pyrazol-4-yl)-1-((6-((tetrahydrofuran-3-yl)amino)pyridin-2-yl)methyl)-1H-pyrazolo[3,4-d]pyrimidin-6-amine] | ≥ 10 µM | < 100 nM
COc1nn(CCO)cc1Nc1ncc2cnn(Cc3ccccc3F)c2n1 [Example 49, 2-(4-(1-(2-Fluorobenzyl)-1H-pyrazolo[3,4-d]pyrimidin-6-ylamino)-3-methoxy-1H-pyrazol-1-yl)ethanol] | 1 to 10 µM | < 100 nM
Cc1cc(-n2ncc3cnc(Nc4cnn(C)c4)nc32)ccc1F [Example 60, 1-(4-fluoro-3-methylphenyl)-N-(1-methyl-1H-pyrazol-4-yl)-1H-pyrazolo[3,4-d]pyrimidin-6-amine] | 1 to 10 µM | 100 to 1000 nM

Further lines, results first:

IC50 (JAK2) | IC50 (JAK3) | SMILES
0.1 to 1 µM | < 100 nM | CS(=O)(=O)Nc1ccccc1Cn1ncc2cnc(Nc3cnn(CC(F)F)c3)nc21 [Example 131, N-(2-((6-((1-(2,2-Difluoroethyl)-1H-pyrazol-4-yl)amino)-1H-pyrazolo[3,4-d]pyrimidin-1-yl)methyl)phenyl)methanesulfonamide hydrochloride]
1 to 10 µM | < 100 nM | Cn1cc(Nc2ncc3cnn(Cc4cccc(N5CCOCC5)c4)c3n2)cc1C(=O)N1CCOCC1 [Example 248]
1 to 10 µM | < 100 nM | Fc1ccccc1Cn1ncc2cnc(Nc3cn[nH]c3)nc21 [Example 88, 1-(2-Fluorobenzyl)-N-(1H-pyrazol-4-yl)-1H-pyrazolo[3,4-d]pyrimidin-6-amine]
1 to 10 µM | < 100 nM | COc1cccc(Cn2ncc3cnc(Nc4cnn(C)c4)nc32)c1 [Example 69, 1-(3-Methoxybenzyl)-N-(1-methyl-1H-pyrazol-4-yl)-1H-pyrazolo[3,4-d]pyrimidin-6-amine]
1 to 10 µM | < 100 nM | Cn1cc(Nc2ncc3cnn(Cc4cccc(F)c4F)c3n2)cn1 [Example 31, 1-(2,3-Difluorobenzyl)-N-(1-methyl-1H-pyrazol-4-yl)-1H-pyrazolo[3,4-d]pyrimidin-6-amine]
1 to 10 µM | < 100 nM | COc1nn(CC(F)F)cc1Nc1ncc2cnn(Cc3cc(F)ccc3F)c2n1 [Example 152, 1-(2,5-Difluorobenzyl)-N-(1-(2,2-difluoroethyl)-3-methoxy-1H-pyrazol-4-yl)-1H-pyrazolo[3,4-d]pyrimidin-6-amine]
1 to 10 µM | < 100 nM | Cn1cc(Nc2ncc3cnn(Cc4cccc(OCCO)c4)c3n2)cn1 [Example 166, 2-(3-((6-((1-Methyl-1H-pyrazol-4-yl)amino)-1H-pyrazolo[3,4-d]pyrimidin-1-yl)methyl)phenoxy)ethanol]
1 to 10 µM | 100 to 1000 nM | Cn1cc(Nc2ncc3cnn(Cc4ccncc4F)c3n2)cn1 [Example 46, 1-((3-Fluoropyridin-4-yl)methyl)-N-(1-methyl-1H-pyrazol-4-yl)-1H-pyrazolo[3,4-d]pyrimidin-6-amine]
0.1 to 1 µM | < 100 nM | Fc1ccccc1Cn1ncc2cnc(Nc3cnn(CCCN4CCOCC4)c3)nc21 [Example 145, 1-(2-Fluorobenzyl)-N-(1-(3-morpholinopropyl)-1H-pyrazol-4-yl)-1H-pyrazolo[3,4-d]pyrimidin-6-amine]
0.1 to 1 µM | < 100 nM | COc1cc(F)cc(Cn2ncc3cnc(Nc4cnn(C)c4)nc32)c1 [Example 104, 1-(3-Fluoro-5-methoxybenzyl)-N-(1-methyl-1H-pyrazol-4-yl)-1H-pyrazolo[3,4-d]pyrimidin-6-amine]
0.1 to 1 µM | < 100 nM | Fc1ccccc1Cn1ncc2cnc(Nc3cnn(CC4CCNC4)c3)nc21 (centres unmarked) [Example 306, 1-(2-Fluorobenzyl)-N-(1-(pyrrolidin-3-ylmethyl)-1H-pyrazol-4-yl)-1H-pyrazolo[3,4-d]pyrimidin-6-amine]
0.1 to 1 µM | < 100 nM | Fc1ccc(F)c(Cn2ncc3cnc(Nc4cnn(CC(F)F)c4)nc32)c1 [Example 129, 1-(2,5-Difluorobenzyl)-N-(1-(2,2-difluoroethyl)-1H-pyrazol-4-yl)-1H-pyrazolo[3,4-d]pyrimidin-6-amine]
